# Reference: paper PMC8032764 (Scientific Reports, 2021)
# Like-named read-outs stand apart in the source and are kept apart here.
# Key:
# [1] = test system: healthy male and female volunteers; assay: Study WP29402 drug-drug interaction with itraconazole; type: in vivo, human
# Source text: 3) Study WP29402 Drug-Drug Interaction (DDI) Itraconazole in Healthy Volunteers This was an open-label, three treatment, fixed sequence crossover study to investigate the […]
# healthy male and female volunteers (age range 18-60 years; n: 12). As systemic basmisanil exposure was predicted to be higher than exposures achiev ed in previous clinical studies, regular EEG examinations were included and reviewed by a neurologist. Multiple oral doses […]
# with the CYP3A inhibitor, itraconazole (200 m g OD).
# Baseline EEG assessments were performed prior to the study (resting EEG eyes open/closed, intermittent photic stimulation, hyperventilation). On treatment days (1, 3, 5, 8) […]
# hours and resting EEG eyes open/closed w ere performed. […]
# administered with itraconazole.
# [2] = Pharmacokinetics, single oral dosing, SAD study BP25129; type: in vivo, Human; conditions: for bioavailability / Tmax / AUC(0-t) / Cmax: human, plasma, tablet, n = 6 male; for Tmax: median, read-out: Tmax (range); for AUC(0-t) / Cmax: ± percent coefficient of variation
# [3] = test system: T1, Adenosine A1; assay: Cerep binding; set-up: species or system human; conditions: 10 μM; [3H]DPCPX; hum. recomb. (CHO)
# T1 construct: host or cells: CHO
# [4] = Plasma levels, prepulse inhibition; type: in vivo, rat; conditions: approximately 60 min, mean ± SD
# Procedure: intensities (72, 76, 80, 84 dB) at total plasma concentrations of 56 ± 20, 169 ± 20, and […]
# Compound administered at 1, 3 and 10 mg/kg p.o. to male Sprague-Dawley rats 30 min prior to testing. Bars indicate mean percent prepulse inhibition (% PPI) ± SEM; 10 animals per dose group. Background noise: 68 dB. Startle pulse: 12 0 dB. For full methods refer to:
# Nordquist et al. (2008). Effects of aripiprazole/OPC-14597 on motor activity, pharmacological models of psychosis, and brain activity in rats. Neuropharmacology , 54,405-416.
# Animals were euthanized at the end of testing and plasma samples were collected approximately 60 min post administration; n = 4 rats per group.
# (1 picture or pasted object on this page, not shown here)
# [5] = test system: GABA (non-selective); assay: Cerep binding; conditions: 10 μM; [3H]GABA; rat cerebral cortex
# [6] = test system: T2, Serotonin 5-HT6; assay: Cerep binding; set-up: species or system human; conditions: 10 μM; [3H]LSD; hum. recomb. (CHO)
# T2 construct: purchased Eurofins Cerep
# [7] = test system: T3, Neurokinin NK3; assay: Cerep binding; set-up: species or system human; conditions: 10 μM; [3H]SR 142801; hum. recomb. (CHO)
# T3 construct: purchased Eurofins Cerep
# [8] = test system: SKCa channel; assay: Cerep binding; conditions: 10 μM; [125I]apamin; rat cerebral cortex
# [9] = test system: T4, Melatonin MT1 (ML1A); assay: Cerep binding; set-up: species or system human; conditions: 10 μM; [125I]2-iodomelatonin; hum. recomb. (CHO)
# T4 construct: host or cells: CHO
# [10] = 240 mg BID with itraconazole 200 mg OD versus alone
compound,measurement,setting,value
Cc1onc(-c2ccc(F)cc2)c1COc1ccc(C(=O)N2CCS(=O)(=O)CC2)cn1 [basmisanil],maximum plasma concentration,[1]; 240 mg BID alone,3510 ng/mL
same,maximum plasma concentration,[1]; 240 mg BID co-administered with itraconazole 200 mg OD,14500 ng/mL
same,increase in maximum plasma concentration,[1]; [10],312%
same,increase in systemic exposure at steady state,[1]; [10],374%
same,maximum plasma concentration,"[1]; DDI study, n = 12","approximately 14,500 ng/mL"
same,EEG findings,[1]; co-administered with itraconazole,no epileptiform discharges
same,bioavailability,[2]; 45 mg oral,~75%
same,Tmax,[2]; 45 mg oral,3.5 h
same,AUC(0-t),[2]; 45 mg oral,6040 ± 38.7 ng·h/mL
same,Cmax,[2]; 45 mg oral,767 ± 15.4 ng/mL
same,bioavailability,[2]; 160 mg oral,~75%
same,Tmax,[2]; 160 mg oral,4 h
same,AUC(0-t),[2]; 160 mg oral,20300 ng·h/mL
same,Cmax,[2]; 160 mg oral,1860 ± 14.3 ng/mL
same,bioavailability,[2]; 330 mg oral,~75%
same,Tmax,[2]; 330 mg oral,4 h
same,AUC(0-t),[2]; 330 mg oral,30500 ng·h/mL
same,Cmax,[2]; 330 mg oral,2120 ± 24 ng/mL
same,maximum plasma concentration,[2]; single dose 160 mg,1860 ng/mL
same,maximum plasma concentration,[2]; single dose 660 mg,3710 ng/mL
same,maximum plasma concentration,[2]; single dose 1250 mg,4890 ng/mL
same,% Inhibition,[3],28%
same,total plasma concentration,[4]; 1 mg/kg p.o.,56 ± 20 ng/mL
same,total plasma concentration,[4]; 3 mg/kg p.o.,169 ± 20 ng/mL
same,total plasma concentration,[4]; 10 mg/kg p.o.,729 ± 255 ng/mL
same,% Inhibition,[5],-1%
same,% Inhibition,[6],7%
same,% Inhibition,[7],-9%
same,% Inhibition,[8],3%
same,% Inhibition,[9],14%
